# Results taken from patent US4904668A, “Benzoyl urea compound” (Ishihara Sangyo Kaisha Ltd., priority 1986, dated 1990).
# Experiments:
# [1] = average particle size of pulverized benzoyl urea compound by light scattering (Autosizer Model 700); format: physicochemical; settings: for average particle size in the liquid formulation: 3000 rpm 45 minutes, autoclaved
# Experimental: Compound No. 3, No. 5 or No. 6 (4 w/v%) as the benzoyl urea compound and polyoxyethylene hardened caster oil 60 (HCO-60, manufactured by Nikko Chemical K.K., 10 w/v%) as a dispersant were suspended in water, and after an addition of glass beads (from 1 to 1.4 mm in diameter) in an amount of the same volume, subjected to rotary pulverization by Dyno-mill for 20 minutes.
# (§1) The average particle size was measured in such a manner that the benzoyl urea compound was diluted to a concentration of 20 μg/ml and the average particle size was measured by a light scattering method (Autosizer, Model 700, manufactured by Maruburn Company) (the same applies hereinafter).
# Compound No. 3 (4 w/v%) and the following dispersant (10 w/v%) were suspended in water, and after an addition of glass beads (from 1 to 1.4 mm in diameter) in an amount of the same volume, subjected to rotary pulverization by Dyno-mill for 45 minutes. As the dispersant, polyoxyethylene hardened caster oil 60 (HCO-60, manufactured by Nikko Chemical K.K.), polyoxyethylene (160) polyoxypropylene (30) glycol (F68, manufactured by Asahi Denka Kogyo K.K.), a decaglycerol fatty acid ester (Decagly.ester, Nikko Chemical K.K.) or polysolbate 80 (Tween 80, manufactured by Nakarai Kagaku K.K.) was employed.
# Compound No. 3 (from 10 to 40 w/v%), HCO-60 (5 w/v%) as a dispersant and glass beads (from 1 to 1.5 mm in diameter) were subjected to rotary pulverization by Dyno-mill for pulverization time of 30 minutes. Then, the average particle size of the benzoyl urea compound was measured.
# Compound No. 3 (20 w/v%), HCO-60 (from 2.5 to 10 w/v%) as the dispersant and glass beads (from 1 to 1.5 mm in diameter) were subjected to rotary pulverization by Dyno-mill for a pulverization time of 30 minutes. Then, the average particle size of the benzoyl urea compound was measured.
# Compound No. 3 (40 w/v%), HCO-60 (5 w/v%) as the dispersant and glass beads (three types having a diameter of from 0.25 to 0.5, from 0.5 to 0.75 and from 1 to 1.5 mm, respectively) were subjected to rotary pulverization by Dyno-mill for a pulverization time of 30 minutes. Then, the average particle size of the benzoyl urea compound was measured.
# Compound No. 3 (40 w/v%), HCO-60 (5 w/v%) as the dispersant and glass beads (from 0.25 to 0.5 mm in diameter), were subjected to rotary pulverization by Dyno-mill for a pulverization time of from 10 to 60 minutes. Then, the average particle size of the benzoyl urea compound was measured.
# (§2) Compound No. 3 (20 g) was suspended in 50 ml of a 5 w/v% HCO-60 aqueous solution, and the suspension was wet pulverized (3000 rpm for 45 minutes) by Dyno-mill by using 50 g of glass beads (from 0.25 to 0.5 mm in diameter). After the completion of the pulverization, glass beads were removed by sieving, to obtain a wet pulverized formulation of Compound No. 3.
# (§3) The wet pulverized formulation thus obtained was sterilized in an autoclave to obtain a liquid formulation of a final form. The average particle size of Compound No. 3 in this liquid formulation was 0.68 μm. Instead of the sterilization in an autoclave, it is possible to employ filtration to remove bacteria. If necessary, a sweetening agent, a perfume, etc. may be added.
# as §2, with “(15” for “(20”, “decaglycerol monolaurate (Decagline 1 L, manufactured by Nikko Chemical K.K.)” for “HCO-60”
# as §3, with “0.75” for “0.68”, “added. […]” for “added.”
# [2] = oral administration of wet pulverized formulations to rats, AUC of concentration in blood; format: in vivo, Wister male rats; settings: rat, plasma, 50 mg/kg, 50 mg/5 ml/kg, compound 40 w/v%, HCO-60 10 w/v%
# Experimental: Each of four wet pulverized formulations having different particle sizes [composition: Compound No. 3 (40 w/v%) and HCO-60 (10 w/v%)] was forcibly orally administered by an oral sonde to a group of 5 Wister male rats (body weight: 200 g) starved for 18 hours (dose: 50 mg/5 ml/kg). Then, blood (0.3 ml) was periodically sampled with heparin from the jugular vein. The blood thus obtained was subjected to separation of the plasma and removal of proteins by using acetonitrile, and then Compound No. 3 was quantitatively analyzed by a high speed liquid chromatography using a reversed phase column (Nova Pak C18, 5μ, 3.9 mm in diameter×150 mm, Nihon Waters), and the curve of the concentration in blood was prepared. From the curve of the concentration in blood, the area below the curve was obtained by using a trapezoid formula and presented as AUC (Area Under the Curve).
# [3] = stability of particles in the liquid composition on storage at room temperature; format: physicochemical; settings: compound 40 w/v%, HCO-60 10 w/v%
# Experimental: as §1
# The stability of particles in the liquid composition of the benzoyl urea compound was investigated.
# Namely, a wet pulverization formulation comprising compound No. 3 (40 w/v%) and HCO-60 (10 w/v%) was stored at room temperature, whereby the stability of the particles was investigated.
# [4] = compound 4 w/v%, HCO-60 10 w/v%, glass beads 1 to 1.4 mm, Dyno-mill 20 minutes
smiles,measurement,setting,value
O=C(NC(=O)c1ccccc1[N+](=O)[O-])Nc1ccc(Oc2ncc(Br)cn2)c(Cl)c1 [Compound No. 3],average particle size in the liquid formulation,"[1]; Example 1: 20 g in 50 ml 5 w/v% HCO-60, beads 0.25 to 0.5 mm",0.68 μm
same,average particle size in the liquid formulation,"[1]; Example 3: 15 g in 50 ml 5 w/v% decaglycerol monolaurate, beads 0.25 to 0.5 mm",0.75 μm
same,Particle size (average),[1]; [4],0.43 μm
same,Particle size (average),"[1]; diameter of beads 0.25-0.5 mm, compound 40 w/v%, HCO-60 5 w/v%, 30 minutes",0.30 μm
same,Particle size (average),"[1]; diameter of beads 0.5-0.75 mm, compound 40 w/v%, HCO-60 5 w/v%, 30 minutes",0.33 μm
same,Particle size (average),"[1]; diameter of beads 1-1.5 mm, compound 40 w/v%, HCO-60 5 w/v%, 30 minutes (Table 5)",0.46 μm
same,Particle size (average),"[1]; dispersant Decagly.ester 10 w/v%, compound 4 w/v%, beads 1 to 1.4 mm, 45 minutes",0.6 μm
same,Particle size (average),"[1]; dispersant F68 10 w/v%, compound 4 w/v%, beads 1 to 1.4 mm, 45 minutes",0.9 μm
same,Particle size (average),"[1]; dispersant HCO-60 2.5 w/v%, compound 20 w/v%, beads 1 to 1.5 mm, 30 minutes",0.54 μm
same,Particle size (average),"[1]; dispersant HCO-60 5 w/v%, compound 20 w/v%, beads 1 to 1.5 mm, 30 minutes (Table 4)",0.50 μm
same,Particle size (average),"[1]; dispersant HCO-60 10 w/v%, compound 4 w/v%, beads 1 to 1.4 mm, 45 minutes",0.9 μm
same,Particle size (average),"[1]; dispersant HCO-60 10 w/v%, compound 20 w/v%, beads 1 to 1.5 mm, 30 minutes",0.45 μm
same,Particle size (average),"[1]; dispersant Tween 80 10 w/v%, compound 4 w/v%, beads 1 to 1.4 mm, 45 minutes",0.6 μm
same,Particle size (average),"[1]; pulverization time 10 minutes, compound 40 w/v%, HCO-60 5 w/v%, beads 0.25 to 0.5 mm",0.38 μm
same,Particle size (average),"[1]; pulverization time 20 minutes, compound 40 w/v%, HCO-60 5 w/v%, beads 0.25 to 0.5 mm",0.33 μm
same,Particle size (average),"[1]; pulverization time 30 minutes, compound 40 w/v%, HCO-60 5 w/v%, beads 0.25 to 0.5 mm (Table 6)",0.29 μm
same,Particle size (average),"[1]; pulverization time 40 minutes, compound 40 w/v%, HCO-60 5 w/v%, beads 0.25 to 0.5 mm",0.27 μm
same,Particle size (average),"[1]; pulverization time 50 minutes, compound 40 w/v%, HCO-60 5 w/v%, beads 0.25 to 0.5 mm",0.26 μm
same,Particle size (average),"[1]; pulverization time 60 minutes, compound 40 w/v%, HCO-60 5 w/v%, beads 0.25 to 0.5 mm",0.26 μm
same,Particle size (average),"[1]; sample 10 w/v%, HCO-60 5 w/v%, beads 1 to 1.5 mm, 30 minutes",0.56 μm
same,Particle size (average),"[1]; sample 20 w/v%, HCO-60 5 w/v%, beads 1 to 1.5 mm, 30 minutes",0.50 μm
same,Particle size (average),"[1]; sample 40 w/v%, HCO-60 5 w/v%, beads 1 to 1.5 mm, 30 minutes",0.46 μm
same,AUC(0-t) at 24 h,[2]; particle size 0.31 μm,11600 ± 2300 ng·h/mL
same,AUC(0-t) at 24 h,[2]; particle size 0.66 μm,10000 ± 1600 ng·h/mL
same,AUC(0-t) at 24 h,[2]; particle size 1.5 μm,8100 ± 1200 ng·h/mL
same,AUC(0-t) at 24 h,[2]; particle size 2.5 μm,6900 ± 1400 ng·h/mL
same,Particle size on storage,[3]; 0 months,0.7 μm
same,Particle size on storage,[3]; 1 month,0.8 μm
same,Particle size on storage,[3]; 3 months,1.3 μm
O=C(NC(=O)c1ccccc1[N+](=O)[O-])Nc1ccc(Oc2ncc(Cl)cn2)c(C(F)(F)F)c1 [Compound No. 5],Particle size (average),[1]; [4],1.13 μm
O=C(NC(=O)c1ccccc1[N+](=O)[O-])Nc1ccc(Oc2ncc(Cl)cn2)c([N+](=O)[O-])c1 [Compound No. 6],Particle size (average),[1]; [4],0.72 μm
